Data taken from patent US11459338B2, “Heterocyclic compounds as PRMT5 inhibitors” (JUBILANT EPISCRIBE LLC, priority 2018, dated 2022).
Like-named read-outs stand apart in the source and are kept apart here.

Assays:
Z-138 cells = assay: Z-138 long term proliferation assay (Cell Titer Glo); assay type: cell-based; conditions: Homo sapiens; for GI50: 192 h, Z-138 cells, cell viability, day 8, read-out: PRMT5 Z138 GI50 Day 8 μM; for IC50: Z-138, 192 h, summary of Table 1, read-out: IC50 value (all the three assays): Z138 GI50 Day 8
Outline: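 Z-138 cells exposed to ten-point 3-fold dilutions (top 10 μM, 0.3% DMSO) for 96 h at 37° C., 5% CO2, then re-dosed for four more days.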

PRMT5/MEP50 = biological target: T1, PRMT5/MEP50 (Homo sapiens, UniProt O14744); assay: PRMT5/MEP50 enzyme assay on peptide substrates (3H-SAM Flashplate); assay type: biochemical; conditions: PRMT5/MEP50 10 nM, H4 1-15aa peptide 100 nM, 3H-SAM 1 μM
T1 construct: Full-length human PRMT5 (NP_006100)
T1 sequence (O14744 whole entry): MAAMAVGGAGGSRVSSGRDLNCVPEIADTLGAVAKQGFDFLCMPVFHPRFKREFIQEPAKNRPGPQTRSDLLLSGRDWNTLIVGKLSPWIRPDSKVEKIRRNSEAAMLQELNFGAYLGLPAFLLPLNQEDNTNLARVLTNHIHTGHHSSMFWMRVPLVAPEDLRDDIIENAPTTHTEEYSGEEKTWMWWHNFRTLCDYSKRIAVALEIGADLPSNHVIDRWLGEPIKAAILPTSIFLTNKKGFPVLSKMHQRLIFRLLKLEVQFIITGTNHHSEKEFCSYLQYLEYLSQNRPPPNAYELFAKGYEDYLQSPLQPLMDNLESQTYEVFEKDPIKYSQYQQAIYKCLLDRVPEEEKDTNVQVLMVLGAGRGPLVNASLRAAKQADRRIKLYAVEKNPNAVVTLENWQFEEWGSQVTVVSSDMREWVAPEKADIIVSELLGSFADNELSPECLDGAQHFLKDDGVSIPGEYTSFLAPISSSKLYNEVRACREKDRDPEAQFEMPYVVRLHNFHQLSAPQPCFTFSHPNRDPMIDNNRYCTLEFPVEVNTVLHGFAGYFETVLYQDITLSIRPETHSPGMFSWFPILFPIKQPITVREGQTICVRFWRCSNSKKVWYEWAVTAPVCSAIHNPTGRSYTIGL
T1 sequence (Q9BQA1 whole entry partner): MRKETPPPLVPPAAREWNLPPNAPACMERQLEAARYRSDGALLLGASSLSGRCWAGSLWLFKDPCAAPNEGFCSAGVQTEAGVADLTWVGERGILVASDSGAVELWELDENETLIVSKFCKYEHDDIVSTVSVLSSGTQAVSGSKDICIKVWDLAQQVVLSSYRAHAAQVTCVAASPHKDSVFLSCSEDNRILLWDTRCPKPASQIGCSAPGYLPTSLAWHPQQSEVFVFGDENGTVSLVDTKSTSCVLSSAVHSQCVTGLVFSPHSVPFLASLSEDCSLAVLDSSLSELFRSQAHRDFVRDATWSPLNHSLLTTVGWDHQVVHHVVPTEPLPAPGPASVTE

[1] = test system: Symmetric di-methyl arginine in Z-138 cells; assay: Z-138 methylation assay, ELISA for detection of symmetric di-methyl arginine; assay type: cell-based; conditions: Homo sapiens
Protocol: General reagents. […] Iscove's Modified Dulbecco's Medium (IMDM), Horse serum, penicillin-streptomycin, PBS and TMB-ELISA substrate solution were purchased from ThermoFisher Scientific. Symmetric di-methyl arginine antibody was purchased from Cell Signaling Technologies.Anti-SNRPD3/SmD3 antibody was purchased from Sigma-Aldrich.
ELISA for detection of Symmetric di-methyl arginine. […] A compound source plate was prepared by performing ten-point 3-fold dilution in DMSO, such that the final top concentration of the compound was 10 μM, and DMSO was 0.3%. The total volume of compounds added was 20 μL. The cells were incubated for 96 h at 37° C., 5% CO2. Z-138 cells were directly lysed in media with 3× Lysis Buffer (1×: 10 mM HEPES pH7.9, 5 mM MgCl2, 1M NaCl, 0.25M Sucrose, 1% Triton X-100, 1 mM PMSF, Protease & Phosphatase inhibitors). […] Plates were incubated at room temperature for a minimum of 3 h and then washed with PBS-Tween 20 (0.05%). The plates were blocked with 5% BSA at room temperature for 1 h, washed with PBS-Tween 20 and incubated with primary antibody at 4 C overnight.

[2] = Z-138, 96 h, summary of Table 1, read-out: IC50 value (all the three assays): Z138 SDMA ELISA Day 4
[3] = Z-138 cells, 96 h (day 4), read-out: PRMT5 Z138 SDMA ELISA Day 4 μM

IC50 (PRMT5/MEP50) [µM] | IC50 [1, 2] [µM] | IC50 [1, 3] [µM] | SMILES | GI50 (Z-138 cells) [µM] | IC50 (Z-138 cells) [µM]
0.01 to 1 | 0.01 to 1 | 0.01 to 1 | CC(=O)N1CC(n2cc(-c3ccc4nc(C(=O)NC[C@H](O)CN5CCc6ccccc6C5)cn4c3)cn2)C1 [Example 23, (S)-6-(1-(1-acetylazetidin-3-yl)-1H-pyrazol-4-yl)-N-(3-(3,4-dihydroisoquinolin-2(1H)-yl)-2-hydroxypropyl)imidazo[1,2-a]pyridine-2-carboxamide] | 0.01 to 1 | 0.01 to 1
0.01 to 1 |  | 0.01 to 1 | CC(=O)Nc1ccc2nc(C(=O)NC[C@H](O)CN3CCc4ccccc4C3)cn2c1 [Example 39, (S)-6-acetamido-N-(3-(3,4-dihydroisoquinolin-2(1H)-yl)-2-hydroxypropyl)imidazo[1,2-a]pyridine-2-carboxamide] | 1 to 5 | 
> 5 |  | 0.01 to 1 | CS(=O)(=O)Nc1ccc2nc(C(=O)NC[C@H](O)CN3CCc4ccccc4C3)cn2c1 [Example 41, (S)—N-(3-(3,4-dihydroisoquinolin-2(1H)-yl)-2-hydroxypropyl)-6-(methylsulfonamido)imidazo[1,2-a]pyridine-2-carboxamide] | 0.01 to 1 | 
0.01 to 1 |  | 0.01 to 1 | O=C(NC[C@H](O)CN1CCc2ccccc2C1)c1cn2cc(C(F)(F)F)cnc2n1 [Example 42] | 1 to 5 | 
> 5 |  | 0.01 to 1 | Cn1cc(-c2cnc3nc(C(=O)NC[C@H](O)CN4CCc5ccccc5C4)cn3c2)cn1 [Example 43, (S)—N-(3-(3,4-dihydroisoquinolin-2(1H)-yl)-2-hydroxypropyl)-6-(1-methyl-1H-pyrazol-4-yl)imidazo[1,2-a]pyrimidine-2-carboxamide] | > 5 | 
0.01 to 1 |  | 0.01 to 1 | O=C(NC[C@H](O)CN1CCc2ccccc2C1)c1cn2cc(N3CCC3)ccc2n1 [Example 69, (S)-6-(azetidin-1-yl)-N-(3-(3,4-dihydroisoquinolin-2(1H)-yl)-2-hydroxypropyl)imidazo[1,2-a]pyridine-2-carboxamide] | 1 to 5 | 
1 to 5 |  | 0.01 to 1 | O=C(NC[C@H](O)CN1CCc2ccccc2C1)c1cn2cc(N3CCC(F)C3)ncc2n1 (stereo partly drawn) [Example 73, N—((S)-3-(3,4-dihydroisoquinolin-2(1H)-yl)-2-hydroxypropyl)-6-(3-fluoropyrrolidin-1-yl)imidazo[1,2-a]pyrazine-2-carboxamide] | 1 to 5 | 
1 to 5 |  | 0.01 to 1 | CC1CCc2nc(C(=O)NCC(O)CN3CCc4ccccc4C3)cn2C1 (stereo not drawn) [Example 102, N-(3-(3,4-dihydroisoquinolin-2(1H)-yl)-2-hydroxypropyl)-6-methyl-5,6,7,8-tetrahydroimidazo[1,2-a]pyridine-2-carboxamide] | 0.01 to 1 | 
1 to 5 |  | 0.01 to 1 | CC1CCn2cc(C(=O)NCC(O)CN3CCc4ccccc4C3)nc2C1 (stereo not drawn) [Example 103, N-(3-(3,4-dihydroisoquinolin-2(1H)-yl)-2-hydroxypropyl)-7-methyl-5,6,7,8-tetrahydroimidazo[1,2-a]pyridine-2-carboxamide] | 0.01 to 1 | 
0.01 to 1 |  | 0.01 to 1 | CCCC1CCc2nc(C(=O)NCC(O)CN3CCc4ccccc4C3)cn2C1 (stereo not drawn) [Example 106, N-(3-(3,4-dihydroisoquinolin-2(1H)-yl)-2-hydroxypropyl)-6-propyl-5,6,7,8-tetrahydroimidazo[1,2-a]pyridine-2-carboxamide] | 1 to 5 | 
> 5 |  | 0.01 to 1 | CO[C@@H]1CCc2nc(C(=O)NC[C@H](O)CN3CCc4ccccc4C3)cn2C1 [Example 107A, (R)—N—((S)-3-(3,4-dihydroisoquinolin-2(1H)-yl)-2-hydroxypropyl)-6-methoxy-5,6,7,8-tetrahydroimidazo[1,2-a]pyridine-2-carboxamide] | 1 to 5 | 
1 to 5 |  | 0.01 to 1 | O=C(NCC(O)CN1CCc2ccccc2C1)c1cn2c(n1)CC(c1ccccc1)CC2 (stereo not drawn) [Example 109, N-(3-(3,4-dihydroisoquinolin-2(1H)-yl)-2-hydroxypropyl)-7-phenyl-5,6,7,8-tetrahydroimidazo[1,2-a]pyridine-2-carboxamide] | > 5 | 
1 to 5 |  | 0.01 to 1 | Cn1cc(C2CCc3nc(C(=O)NCC(O)CN4CCc5ccccc5C4)cn3C2)cn1 (stereo not drawn) [Example 111, N-(3-(3,4-dihydroisoquinolin-2(1H)-yl)-2-hydroxypropyl)-6-(1-methyl-1H-pyrazol-4-yl)-5,6,7,8-tetrahydroimidazo[1,2-a]pyridine-2-carboxamide] | 1 to 5 | 

Further lines, the compound ahead of its results:

SMILES | IC50 (PRMT5/MEP50) [µM] | IC50 [1, 2] [µM] | IC50 [1, 3] [µM] | GI50 (Z-138 cells) [µM] | IC50 (Z-138 cells) [µM]
Cn1cc(-c2ccc3nc(C(=O)NC[C@H](O)CN4CCc5ccccc5C4)cn3c2)nn1 [Example 36, (S)—N-(3-(3,4-dihydroisoquinolin-2(1H)-yl)-2-hydroxypropyl)-6-(1-methyl-1H-1,2,3-triazol-4-yl)imidazo[1,2-a]pyridine-2-carboxamide] | 0.01 to 1 | 0.01 to 1 | 0.01 to 1 | 0.01 to 1 | 0.01 to 1
Cn1cc(-c2cn3cc(C(=O)NC[C@H](O)CN4CCc5ccccc5C4)nc3cn2)cn1 [Example 45, (S)—N-(3-(3,4-dihydroisoquinolin-2(1H)-yl)-2-hydroxypropyl)-6-(1-methyl-1H-pyrazol-4-yl)imidazo[1,2-a]pyrazine-2-carboxamide] | 0.01 to 1 | 0.01 to 1 | 0.01 to 1 | 0.01 to 1 | 0.01 to 1
Cn1ccc(-c2cn3cc(C(=O)NC[C@H](O)CN4CCc5ccccc5C4)nc3cn2)cc1=O [Example 47, (S)—N-(3-(3,4-dihydroisoquinolin-2(1H)-yl)-2-hydroxypropyl)-6-(1-methyl-2-oxo-1,2-dihydropyridin-4-yl)imidazo[1,2-a]pyrazine-2-carboxamide] | 0.01 to 1 | 0.01 to 1 | 0.01 to 1 | 0.01 to 1 | 0.01 to 1
Cn1ccc(-c2ccc3nc(C(=O)NC[C@H](O)CN4CCc5ccccc5C4)cn3n2)cc1=O [Example 48, (S)—N-(3-(3,4-dihydroisoquinolin-2(1H)-yl)-2-hydroxypropyl)-6-(1-methyl-2-oxo-1,2-dihydropyridin-4-yl)imidazo[1,2-b]pyridazine-2-carboxamide] | 0.01 to 1 | 0.01 to 1 | 0.01 to 1 | 0.01 to 1 | 0.01 to 1
CN(C[C@H](O)CN1CCc2ccccc2C1)C(=O)c1cn2cc(-c3ccn(C)c(=O)c3)ncc2n1 [Example 93, (R)—N-(3-(3,4-dihydroisoquinolin-2(1H)-yl)-2-hydroxypropyl)-N-methyl-6-(1-methyl-2-oxo-1,2-dihydropyridin-4-yl)imidazo[1,2-a]pyrazine-2-carboxamide] | 0.01 to 1 |  | 0.01 to 1 | 1 to 5 | 
O=C(NCC(O)CNC1Cc2ccccc2C1)c1cn2cc(C(F)(F)F)ccc2n1 (stereo not drawn) [Example 96] | 0.01 to 1 | 0.01 to 1 | 0.01 to 1 | 0.01 to 1 | 0.01 to 1
O=C(NC(CO)CCN1CCc2ccccc2C1)c1cn2cc(C(F)(F)F)ccc2n1 (stereo not drawn) [Example 100, N-(4-(3,4-dihydroisoquinolin-2(1H)-yl)-1-hydroxybutan-2-yl)-6-(trifluoromethyl)imidazo[1,2-a]pyridine-2-carboxamide] | 1 to 5 |  | 0.01 to 1 | 1 to 5 | 
CC(C)C1CCc2nc(C(=O)NC[C@H](O)CN3CCc4ccccc4C3)cn2C1 (stereo partly drawn) [Example 108, N—((S)-3-(3,4-dihydroisoquinolin-2(1H)-yl)-2-hydroxypropyl)-6-isopropyl-5,6,7,8-tetrahydroimidazo[1,2-a]pyridine-2-carboxamide] | 1 to 5 |  | 0.01 to 1 | 0.01 to 1 | 
O=C(NCC(O)CN1CCc2ccccc2C1)c1cn2c(n1)CCC(c1ccccc1)C2 (stereo not drawn) [Example 110, N-(3-(3,4-dihydroisoquinolin-2(1H)-yl)-2-hydroxypropyl)-6-phenyl-5,6,7,8-tetrahydroimidazo[1,2-a]pyridine-2-carboxamide] | 1 to 5 |  | 0.01 to 1 | 1 to 5 | 
O=C(NC[C@H](O)CN1CCc2ccccc2C1)c1cn2c(n1)COC(c1ccccc1)C2 (stereo partly drawn) [Example 112, N—((S)-3-(3,4-dihydroisoquinolin-2(1H)-yl)-2-hydroxypropyl)-6-phenyl-5,6-dihydro-8H-imidazo[2,1-c][1,4]oxazine-2-carboxamide] | 1 to 5 |  | 0.01 to 1 | 1 to 5 | 
CC(C)N1CCn2cc(C(=O)NCC(O)CN3CCc4ccccc4C3)nc2C1 (stereo not drawn) [Example 113, N-(3-(3,4-dihydroisoquinolin-2(1H)-yl)-2-hydroxypropyl)-7-isopropyl-5,6,7,8-tetrahydroimidazo [1,2-a] pyrazine-2-carboxamide] | > 5 |  | 1 to 5 | > 5 | 
